Results reported in US10426850B2, “Collagen mimetic peptides for targeting collagen strands for in vitro and in vivo imaging and therapeutic use” (The Johns Hopkins University, priority 2011, dated 2019).
Non-standard residues stand in square brackets, D forms with d. No end group written: not given here. *: point of attachment. IRDye800CW = CC1(C)C(/C=C/C2=C(Oc3ccc(S(=O)(=O)O)cc3)C(=C/C=C3/N(CCCCS(=O)(=O)O)c4ccc(S(=O)(=O)O)cc4C3(C)C)/CCC2)=[N+](CCCCCC(=O)*)c2ccc(S(=O)(=O)[O-])cc21; Hyp = O=C(O)[C@@H]1C[C@@H](O)CN1; CF = 5(6)-carboxyfluorescein; Ahx = NCCCCCC(=O)O

Experiments:
[1] = Circular dichroism spectra and thermal melting of CMPs; type: physicochemical; conditions: for Tm (CD melting curve, triple helix): after UV exposure (photo-decaged), heating rate 60° C./hr, Tm about 10° C. higher than equilibrium Tm
Method: Circular dichroism spectroscopy. CD spectra were collected on JASCO 715 spectrophotometer equipped with a JASCO PTC-348 WI temperature controller and quartz cells (0.1 mm path length). CMP solutions (320 μL, 150 μM in 1×PBS) were stored at 4° C. for at least 24 hours before measurement. For photo-decaging, samples were exposed to 365 nm UV light for at least 30 minutes before the 4° C. incubation. The thermal melting studies were performed by measuring the ellipticity at 225 nm with 60° C./hr heating rate. Raw CD signal was normalized to mean residue ellipticity based on the peptide's length and concentration (Biopolymers 95:94-104 (2011)). Melting temperatures (Tm) were determined by fitting the mean residue ellipticity to a two-state model (Org Lett 8:4735-4738 (2006)). To measure the refolding kinetics, CMP solution was thermally denatured at 75° C. for 10 minutes in a cuvette and rapidly quenched to 25° C. in an ice-water bath, after which the CD signal at 225 nm was observed over time at 25° C. The CD spectra of intact and MMP-1 cleaved type I collagen (FIG. 12) was measured in 90 μg/mL protein solutions in 20 mM acetic acid buffer at 22° C. The 37° C. thermal stability profile (FIG. 2E, inset) was generated by monitoring the ellipticity at 222 nm immediately after transferring the cuvette to a temperature controlled cuvette holder pre-set to 37° C. The Tm values reported in this study are approximately 10° C. higher than the equilibrium Tm due to high heating rate (60° C./hr) (Biopolymers 73:682-688 (2004)).
Synthesis of fluorescently labeled collagen mimetic peptides. Non-caged CMPs were synthesized using Fmoc-mediated solid-phase chemistry by manual or automated synthesis as described previously.2,4 The caged NB(GPO)9 (SEQ ID NO: 12) was prepared by introducing Fmoc(N-o-nitrobenzyl)Gly-OH (synthesized according to Tatsu et al. 2,5) in the middle of the standard solid-phase peptide synthesis. The Hyp residue following the NBGly was conjugated using 9 molar equiv of Fmoc-Hyp(tBu)-OH, 8.8 molar equiv of PyBroP, and 20 molar equiv of DIPEA for over 24 hr to overcome the low reactivity caused by the steric hindrance of the NB cage group. The remaining sequence including the GGG spacer was completed by HBTU chemistry, followed by on-resin labeling with 6 molar equivalent of CF or TAMRA activated by 6 molar equivalent of PyAOP for over 24 hr. The full length fluorescent CMPs were cleaved from resin by treating the resin with TFA/TIS/H2O (95:2.5:2.5) for 3 hr and the cleaved peptide was purified by reverse phase HPLC on a Vydac C18 column using a linear gradient mixture of water (0.1% TFA) and acetonitrile (0.1% TFA) (5-45% acetonitrile gradient in 40 min). The purified peptides were analyzed by MALDI-TOF MS (FIG. 27): m/z calculated 2975.1 [M+Na+] for CF(GPO)9 (SEQ ID NO: 10), found 2975.0 [M+Na+]; m/z calculated 2975.1 [M+Na+] for ^SG9P9O9 (SEQ ID NO: 5), found 2973.5 [M+Na+]; m/z calculated 3110.2 [M+Na+] for CF^NB(GPO)9 (SEQ ID NO: 4), found 3109.4 [M+Na+]; m/z calculated 2975.1 [M+Na+] for CF(GPO)9 (SEQ ID NO: 10) [CF^NB(GPO)9 (SEQ ID NO: 4) after UV decaging], found 2974.1 [M+Na+]; m/z calculated 3142.3 [M+H+] for TAMRA-NB(GPO)9 (SEQ ID NO: 12), found 3141.4 [M+H+]; m/z calculated 3007.2 [M+H+] for TAMRA-(GPO)9 (SEQ ID NO: 15), [TAMRA-NB(GPO)9 (SEQ ID NO: 12) after decaging], found 3006.3 [M+H+]. CD spectra and CD melting curves of the labeled CMPs were acquired in PBS solutions using a JASCO 715 CD spectrophotometer. The solutions were incubated for at least 24 hours at 4° C. prior to CD experiment to ensure folding (FIG. 28).

[2] = biological target: T1, type I collagen films (fibrillar collagen) (Rattus norvegicus, UniProt P02454+P02466); assay: Photo-triggered CMP binding assay on collagen films; conditions: 4° C., overnight incubation
T1 construct: Collagen solution (200 μL, 3.71 mg/mL, type I rat tail, BD Science); purchased BD Science; host or cells: rat tail
Method: (§1) Collagen/gelatin binding assays. Collagen solution (200 μL, 3.71 mg/mL, type I rat tail, BD Science) in 0.02 N acetic acid was added to each well of a 96-well black/clear-bottom plate (Costar) and air-dried. To make gelatin films, the same collagen solution was denatured at 70° C. for 15 minutes before applying to the well. The dried films were neutralized and washed with 1×PBS buffer (pH 7.4) and deionized water. PBS solution of carboxyfluorescein-labeled caged CMP (40 μL, 50 μM, unless indicated otherwise) pre-equilibrated at 4° C. was added onto each reconstituted collagen or gelatin film and exposed to 365 nm UV light (10 mW/cm^2, from mercury arc lamp) for 11 minutes on ice. Wells for the UV-negative control groups were covered with aluminum foil to block UV exposure. After incubation at 4° C. for over 3 hours (unless indicated otherwise), the unbound materials were removed by rinsing with PBS buffer and deionized water. The films were allowed to dry in dark, after which the fluorescence (ex: 489 nm, em: 533 nm) was measured with a SpectraMax Gemini XPS microplate reader (Molecular Devices). Each binding experiment was done in triplicate.

[3] = biological target: T2, thermally-denatured collagen (gelatin) films (Rattus norvegicus, UniProt P02454+P02466); assay: Photo-triggered CMP binding assay on gelatin films; conditions: after photo-cleavage, type I gelatin films
T2 construct: To make gelatin films, the same collagen solution was denatured at 70° C. for 15 minutes; purchased BD Science; host or cells: rat tail
Method: as §1

[4] = tested on: PC-3 prostate tumor xenografts (PC3-PIP, PC3-flu); assay: In vivo tumor targeting, NIRF imaging, prostate xenografts; set-up: species or system mouse; conditions: 3.7 nmol, tail vein, UV-activated, imaging over four days (to 96 hours PI)
[5] = tested on: Panc02 and Panc198 tumors; assay: In vivo tumor targeting, NIRF imaging, pancreatic xenografts; set-up: species or system mouse; conditions: approximately 4 nmol, tail vein; 96 hr post injection
Method: Murine Panc02 and human Panc198 cells were acquired from the ATCC (Rockville, Md.) and cultured in RPMI1640 supplemented with 10% FBS, 10 μg/mL of streptomycin and 10 I.U./mL of penicillin at 37° C. in 5% CO2 and humidified air until 80-95% confluence. The cells were then trypsinized and formulated at either 2×10^6 cells/100 μL (Panc198) or 1×10^6 cells/100 μL (Panc02) followed by subcutaneous inoculation into 12-week-old female athymic nu/nu mice (NCI). Panc198 and Panc02 cells were inoculated subcutaneously behind the left and right shoulder, respectively. When the Panc02 xenograft reached 4-6 mm in diameter (˜2 weeks after inoculation), each mouse was intravenously administered with solution containing 4 nmol of photo-activated IR-Ahx-(GPO)9 (SEQ ID NO: 9) or IR-Ahx-^SG9P9O9 (SEQ ID NO: 8) and 1 nmol of cysteine, followed by MMPsense injection and NIRF imaging as described.

[6] = tested on: collagen remodeling in bones and cartilages; conditions: 4 nmol intravenous, photo-decaged, four days after injection
[7] = biological target: T3, mouse type IV collagen (denatured, reduced, in SDS-PAGE) (mouse, UniProt P02463 28-1669; P08122 26-1707); assay: fluorescent staining of SDS-PAGE gel
T3 construct: also called collagen type IV

[8] = biological target: T4, MMP-1 cleaved type I collagen (3/4 and 1/4 fragments) (rat, UniProt P02454 152-1207; P02466 86-1125); assay: fluorescent staining of SDS-PAGE gel
T4 construct: Tested kept at 22 C, after 1 min at 37 C (spontaneously denatured), and as denatured bands in SDS-PAGE; also called MMP-1 digested collagens; MMP-Col

T3 sequence (P02463 28-1669, chain 1 of 2): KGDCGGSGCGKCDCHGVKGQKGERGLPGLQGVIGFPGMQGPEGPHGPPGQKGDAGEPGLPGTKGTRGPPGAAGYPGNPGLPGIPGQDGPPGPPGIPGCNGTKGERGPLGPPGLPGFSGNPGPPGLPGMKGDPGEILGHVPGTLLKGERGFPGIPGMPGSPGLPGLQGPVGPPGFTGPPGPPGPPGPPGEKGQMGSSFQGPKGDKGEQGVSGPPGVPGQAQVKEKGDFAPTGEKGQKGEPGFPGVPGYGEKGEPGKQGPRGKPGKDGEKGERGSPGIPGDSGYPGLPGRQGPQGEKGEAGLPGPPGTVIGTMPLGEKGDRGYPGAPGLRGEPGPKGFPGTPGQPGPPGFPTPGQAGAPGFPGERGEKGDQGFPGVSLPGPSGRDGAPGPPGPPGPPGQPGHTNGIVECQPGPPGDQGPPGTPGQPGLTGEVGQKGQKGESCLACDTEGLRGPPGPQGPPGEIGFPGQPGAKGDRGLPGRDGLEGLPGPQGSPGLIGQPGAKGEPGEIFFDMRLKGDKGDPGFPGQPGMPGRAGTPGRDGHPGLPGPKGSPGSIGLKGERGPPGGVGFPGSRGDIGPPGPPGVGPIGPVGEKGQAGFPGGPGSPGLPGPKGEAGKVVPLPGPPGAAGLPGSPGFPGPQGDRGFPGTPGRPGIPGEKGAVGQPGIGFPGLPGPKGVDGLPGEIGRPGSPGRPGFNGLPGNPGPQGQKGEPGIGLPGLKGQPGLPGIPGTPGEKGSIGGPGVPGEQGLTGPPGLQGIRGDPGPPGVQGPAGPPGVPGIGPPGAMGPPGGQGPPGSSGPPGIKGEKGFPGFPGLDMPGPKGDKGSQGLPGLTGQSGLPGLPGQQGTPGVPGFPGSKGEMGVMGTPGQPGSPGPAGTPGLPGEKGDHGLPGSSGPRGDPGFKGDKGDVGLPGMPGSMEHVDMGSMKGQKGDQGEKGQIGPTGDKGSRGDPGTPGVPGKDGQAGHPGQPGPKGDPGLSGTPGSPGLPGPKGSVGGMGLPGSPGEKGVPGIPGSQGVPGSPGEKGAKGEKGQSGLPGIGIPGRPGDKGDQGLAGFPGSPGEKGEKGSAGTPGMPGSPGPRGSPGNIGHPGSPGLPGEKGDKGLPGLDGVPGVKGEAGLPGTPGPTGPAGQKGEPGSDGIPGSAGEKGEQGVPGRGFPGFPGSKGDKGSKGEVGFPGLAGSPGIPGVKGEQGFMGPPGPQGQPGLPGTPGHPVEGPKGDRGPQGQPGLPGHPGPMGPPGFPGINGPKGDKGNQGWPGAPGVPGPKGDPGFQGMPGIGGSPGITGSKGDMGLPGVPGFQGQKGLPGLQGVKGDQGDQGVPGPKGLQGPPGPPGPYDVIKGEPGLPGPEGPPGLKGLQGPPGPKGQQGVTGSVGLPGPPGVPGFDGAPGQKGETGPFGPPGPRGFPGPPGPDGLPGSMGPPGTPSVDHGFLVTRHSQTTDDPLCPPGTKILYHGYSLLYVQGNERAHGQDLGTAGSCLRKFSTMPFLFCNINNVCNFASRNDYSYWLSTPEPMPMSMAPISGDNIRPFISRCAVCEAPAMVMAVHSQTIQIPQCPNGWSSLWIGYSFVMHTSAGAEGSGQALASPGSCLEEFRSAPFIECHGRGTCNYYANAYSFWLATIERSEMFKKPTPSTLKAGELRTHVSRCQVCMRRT
T3 sequence (P08122 26-1707, chain 2 of 2): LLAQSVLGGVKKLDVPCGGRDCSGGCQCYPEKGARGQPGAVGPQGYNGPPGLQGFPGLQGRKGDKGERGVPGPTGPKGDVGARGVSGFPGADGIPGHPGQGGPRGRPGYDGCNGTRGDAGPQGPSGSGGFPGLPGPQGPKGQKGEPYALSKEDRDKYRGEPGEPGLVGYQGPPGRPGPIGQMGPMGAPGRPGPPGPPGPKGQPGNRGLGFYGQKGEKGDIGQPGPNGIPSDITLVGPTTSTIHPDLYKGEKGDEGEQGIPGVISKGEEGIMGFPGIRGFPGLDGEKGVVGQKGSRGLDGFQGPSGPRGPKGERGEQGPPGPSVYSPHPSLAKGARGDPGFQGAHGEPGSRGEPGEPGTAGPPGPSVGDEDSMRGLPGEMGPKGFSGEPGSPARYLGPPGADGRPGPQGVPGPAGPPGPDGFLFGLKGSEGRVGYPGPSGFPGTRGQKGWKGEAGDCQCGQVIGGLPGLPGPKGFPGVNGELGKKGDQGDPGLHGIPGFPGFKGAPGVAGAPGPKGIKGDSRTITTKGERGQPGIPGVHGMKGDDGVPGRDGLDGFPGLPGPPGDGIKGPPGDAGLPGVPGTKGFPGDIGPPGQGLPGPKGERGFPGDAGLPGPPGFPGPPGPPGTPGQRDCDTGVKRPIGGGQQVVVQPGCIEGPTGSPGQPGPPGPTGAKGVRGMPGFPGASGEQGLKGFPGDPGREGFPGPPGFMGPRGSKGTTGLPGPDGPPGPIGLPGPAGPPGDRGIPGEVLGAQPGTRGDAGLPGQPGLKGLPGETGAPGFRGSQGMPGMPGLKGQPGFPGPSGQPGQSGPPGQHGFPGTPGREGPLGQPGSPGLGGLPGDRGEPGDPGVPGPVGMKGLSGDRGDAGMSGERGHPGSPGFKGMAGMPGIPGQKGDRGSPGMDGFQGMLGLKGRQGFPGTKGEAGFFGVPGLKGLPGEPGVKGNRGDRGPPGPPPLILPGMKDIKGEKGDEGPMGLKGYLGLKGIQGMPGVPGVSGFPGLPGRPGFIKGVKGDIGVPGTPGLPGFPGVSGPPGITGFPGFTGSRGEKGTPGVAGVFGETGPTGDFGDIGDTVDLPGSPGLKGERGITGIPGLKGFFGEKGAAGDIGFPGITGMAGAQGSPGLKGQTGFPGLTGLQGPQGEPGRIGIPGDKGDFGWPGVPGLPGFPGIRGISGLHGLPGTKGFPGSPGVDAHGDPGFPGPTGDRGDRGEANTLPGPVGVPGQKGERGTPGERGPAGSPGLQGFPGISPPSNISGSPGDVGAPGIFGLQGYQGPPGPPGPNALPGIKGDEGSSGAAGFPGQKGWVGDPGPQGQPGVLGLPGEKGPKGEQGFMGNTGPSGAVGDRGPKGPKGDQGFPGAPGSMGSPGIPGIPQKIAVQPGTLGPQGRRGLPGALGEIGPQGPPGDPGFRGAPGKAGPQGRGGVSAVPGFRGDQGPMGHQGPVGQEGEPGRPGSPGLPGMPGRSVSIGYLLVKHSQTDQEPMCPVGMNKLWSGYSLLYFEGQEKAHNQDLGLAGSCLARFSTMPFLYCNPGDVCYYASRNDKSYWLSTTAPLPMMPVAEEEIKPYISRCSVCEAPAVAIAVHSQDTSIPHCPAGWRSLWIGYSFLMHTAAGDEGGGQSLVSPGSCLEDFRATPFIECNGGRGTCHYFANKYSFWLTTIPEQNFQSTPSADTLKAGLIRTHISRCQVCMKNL

## CF-GGG-(GPP)4^NBGPP(GPP)4 [CF^NB(GPP)9]
[1]
  Tm (CD melting curve, triple helix): 51 °C

## CF-GGG-(G^DP^DP)4^NBG^DP^DP(G^DP^DP)4 [CF^NB(G^DP^DP)9]
[2]
  UV triggered collagen binding as fraction of that of CF^NB(GPP)9: about one fourth
[3]
  level of gelatin binding relative to CF^NB(GPP)9: an order of magnitude lower
[1]
  Tm (CD melting curve, triple helix): 51 °C

## IR-Ahx-^SG9P9O9: IRDye-800CW labeled sequence-scrambled control peptide with Ahx spacer, SEQ ID NO: 8 ({IRDye800CW-Ahx}-PGPGPGPPPPGPGPPPGPPPGGPPPPG; numbers in words are those of the source; also: 9 O residues (G9P9O9), places not given here)
[4]
  tumor accumulation (in vivo NIRF imaging): minimal accumulation at the tumor sites
[4]; listed as IR-Ahx-SG9P9O9
  tumor accumulation (in vivo NIRF imaging): cleared out
[5]
  tumor accumulation (NIRF imaging): no peptide accumulation
[1]; sequence-scrambled peptide
  triple helical folding capacity (CD melting): no triple helix forming capacity

## IR′-Ahx-^SG9P9O9: IRDye 680RD labeled sequence-scrambled peptide, SEQ ID NO: 8 ({IRDye 680RD-Ahx}-PGPGPGPPPPGPGPPPGPPPGGPPPPG; not fully specified; numbers in words are those of the source; also: 9 O residues (G9P9O9), places not given here)
[6]
  skeletal uptake (whole body NIRF): signal only from the digestive system

B1: CF^SG9P9O9, sequence-scrambled control peptide, CF-GGG-PGOGPGPOPOGOGOPPGOOPGGOOPPG (peptide)
peptide: {CF}-GGGPG[Hyp]GPGP[Hyp]P[Hyp]G[Hyp]G[Hyp]PPG[Hyp][Hyp]PGG[Hyp][Hyp]PPG
notes: Cannot fold into a triple helix; also called ^9G9P9O9; ^CG9P9O9
[7]
  binding result: no binding (tested: 6 µM)
[8]
  binding result: no binding (tested: 6 µM)
